Patent publication US8895051B2, “Flavoring systems for pharmaceutical compositions and methods of making such compositions” (AbbVie Inc., priority 2000, dated 2014)

Key:
[1] = solubility in water; format: physicochemical; details: room temperature and pressure (approximately 25° C. and 1 atmosphere)
[2] = solubility in pharmaceutically acceptable solvents and in a co-solvent system; format: physicochemical

- solubility in water [1]: practically insoluble
- solubility in pharmaceutically acceptable solvents, such as propylene glycol and ethanol ([2]; individual solvents, room temperature (about 25° C.)): adequately soluble
- solubility in a co-solvent system ([2]; more than one solvent in the solvent system, versus individual solvents): significantly improved
Compound: Cc1cccc(C)c1OCC(=O)N[C@@H](Cc1ccccc1)[C@@H](O)C[C@H](Cc1ccccc1)NC(=O)[C@H](C(C)C)N1CCCNC1=O (relative stereo) [lopinavir, [1S-[1R*,(R*),3R*,4R*]]-N-[4-[[(2,6-dimethylphenoxy)acetyl]amino]-3-hydroxy-5-phenyl-1-(phenylmethyl)pentyl]tetrahydro-alpha-(1-methylethyl)-2-oxo-(2H)-pyrimidine acetamide]
